Measured values as given in patent US20180064808A1, “COMBINATION THERAPY OF BISPECIFIC ANTIBODIES SPECIFIC FOR FAP AND DR5 AND CHEMOTHERAPEUTIC AGENTS” (Hoffmann-La Roche Inc., priority 2014, published 2018).
Like-named read-outs stand apart in the source and are kept apart here.

How the values were obtained:
Capan2 = assay: Combination screen PDAC cell lines (CellTiter-Glo); assay type: cell-based; details: for % max. inhibition (mono): first figure of mono/combo
Description: (§1) A panel of CRC and PDAC cell lines was assessed and combination partners of potential clinical relevance for the respective tumor indications were used for evaluation of combination effects (CRC: irinotecan, oxaliplatin, 5-FU, MDM2 inhibitor (RG7388), Bcl-2 inhibitor (ABT199); PDAC: Abraxane, Paclitaxel, Gemcitabine, Doxorubicin, MDM2i (RG7388), Bc12i (ABT199), Bortezomib, Cyclopamine, PARP inhibitor (PJ34)).
(§2) Cells were seeded (numbers vary depending on the cell line) in black 96-well microplate with clear, flat bottom and incubated overnight at 37° C. and 5% CO2. After checking the adherence/confluence of cells, the medium was removed and 100 μl of fresh medium containing the corresponding compound was added to each well. A sequential dilution series (1:4) of 8 concentrations per compound (n=3) were used. Corresponding DMSO concentration and media alone were used as controls.
(§3) After incubation for 3 days at 37° C. and 5% CO2, 100 μl per well CellTiter-Glo reagent (Promega) was added to the plate. Luminescence was measured after 30 minutes agitation at room temperature. IC50-values were calculated with XL-Fit software. Each experiment with one compound was repeated at least twice.
(§4) Cells were seeded (numbers vary depending on the cell line) in black 96-well microplate with clear, flat bottom and incubated overnight at 37° C. and 5% CO2. After checking the adherence/confluence of cells, the medium was removed and 100 μl of fresh medium containing the corresponding compound or combination was added to each well.
(§5) A sequential 1:3 dilution series of 9 concentrations of Drozitumab/anti-human-Fc was done on a 96-well PP-V-bottom microplate (n=6). […] 25 μl/well of the Drozitumab/anti-human-Fc series were then transferred to the cells.
(§6) After incubation for 3 days at 37° C. and 5% CO2 100 μl per well CellTiter-Glo reagent (Promega) were given to the plates. Luminescence was measured after 30 minutes agitation at room temperature.
(§7) For each concentration of Drozitumab/anti-human-Fc and Drozitumab/anti-human-Fc+compound triplicates were done on the same plate and each experiment was repeated at least twice.

Aspc1 = assay: Combination screen PDAC cell lines (CellTiter-Glo); assay type: cell-based; details: for % max. inhibition (mono): first figure of mono/combo; for IC50: agent alone, 3 days, read-out: IC50 monotherapy
Description: as §1, §2, §3, §4, §5, §6, §7

Panc1 = assay: Combination screen PDAC cell lines (CellTiter-Glo); assay type: cell-based; details: for IC50: 3 days; for % max. inhibition (mono): first figure of mono/combo
Description: as §1, §2, §3, §4, §5, §6, §7

Bxpc3 = assay: Combination screen PDAC cell lines (CellTiter-Glo); assay type: cell-based; details: for IC50: agent alone, 3 days, read-out: IC50 monotherapy
Description: as §1, §2, §3, §4, §5, §6, §7

HT29 = assay: Combination screen CRC cell lines (CellTiter-Glo); assay type: cell-based; details: for IC50: 3 days; for % max. inhibition (mono): first figure of mono/combo; for Fold change IC50 (DR5 ab mono vs combo) / % max. inhibition (combo): n.s. = not significant; for % max. inhibition (combo): second figure of mono/combo
Description: as §1, §2, §3, §4, §5, §6, §7

SW480 = assay: Combination screen CRC cell lines (CellTiter-Glo); assay type: cell-based; details: for % max. inhibition (mono): first figure of mono/combo; for % max. inhibition (combo): second figure of mono/combo
Description: as §1, §2, §3, §4, §5, §6, §7

HCT116 = assay: Combination screen CRC cell lines (CellTiter-Glo); assay type: cell-based, human; details: for IC50: 3 days; for % max. inhibition (mono): first figure of mono/combo; for % max. inhibition (combo): second figure of mono/combo
Description: as §1, §2, §3, §4, §5, §6, §7

[1] = clinical studies; cited from earlier work
FAP = assay: Binding mode, specificity and species cross-reactivity of FAP binder 28H1
[2] = Capan2, second figure of mono/combo, n.s. = not significant
[3] = Aspc1, second figure of mono/combo, n.s. = not significant
[4] = Homo sapiens, PANC-1, 72 h, Panc1, DR5 ab + Fc titrated in combination with 1x IC50 of the named compound, read-out: IC50 Combo
[5] = Homo sapiens, PANC-1, 72 h, Panc1, agent alone, read-out: IC50 monotherapy
[6] = Panc1, second figure of mono/combo, n.s. = not significant
[7] = Bxpc3, first figure of mono/combo
[8] = Bxpc3, second figure of mono/combo, n.s. = not significant
[9] = Homo sapiens, BXPC-3, 72 h, Bxpc3
[10] = Homo sapiens, HT-29, 72 h, agent alone, read-out: IC50 monotherapy
[11] = DR5 ab + Fc titrated in combination with 1x IC50 of the named compound, read-out: IC50 combo
[12] = agent alone, read-out: IC50 monotherapy

Compound	Fold change IC50 (DR5 ab mono vs combo) (Aspc1; Aspc1, n.s. = not significant)	Fold change IC50 (DR5 ab mono vs combo) (Panc1; Panc1, n.s. = not significant)	Fold change IC50 (DR5 ab mono vs combo) (Bxpc3; Bxpc3, n.s. = not significant)	Fold change IC50 (DR5 ab mono vs combo) (HT29)	Fold change IC50 (DR5 ab mono vs combo) (SW480; n.s. = not significant)	% max. inhibition (mono) (Capan2; Capan2)	% max. inhibition (combo) (Capan2; [2])	% max. inhibition (combo) (Aspc1; [3])	% max. inhibition (combo) (Panc1; [6])	% max. inhibition (combo) (Bxpc3; [8])	% max. inhibition (combo) (HT29)	% max. inhibition (mono) (SW480)	% max. inhibition (combo) (SW480)	% max. inhibition (mono) (HCT116)	% max. inhibition (combo) (HCT116)	other results
O=c1[nH]cc(F)c(=O)[nH]1 [5-FU, 5-Fluoro-1H,3H-pyrimidine-2,4-dione]	–	–	–	25	70000	–	–	–	–	–	85%	50%	65%	60%	90%	IC50 (HT29; [10]): 2500 nM; % max. inhibition (mono) (HT29): 50%; IC50 (SW480; Homo sapiens, 72 h, DR5 ab + Fc titrated in combination with 1x IC50 of the named compound, 3 days, n.s. = not significant, read-out: IC50 combo): 0.002 nM; IC50 (HCT116; Homo sapiens, HCT-116, 72 h, agent alone, read-out: IC50 monotherapy): 2500 nM
CC1=C2C[C@H]3[C@@H](CC=C4C[C@@H](O)CC[C@@]43C)[C@@H]2CC[C@]12O[C@@H]1C[C@H](C)CN[C@H]1[C@H]2C [Cyclopamine, (3β,23R)-17,23-Epoxyveratraman-3-ol]	–	–	–	–	–	–	–	–	–	–	–	–	–	–	–	% max. inhibition (combo) (Capan2): n.s.; % max. inhibition (combo) (Aspc1): n.s.; % max. inhibition (combo) (Panc1): n.s.; % max. inhibition (combo) (Bxpc3): 65/95%; % max. inhibition (mono) (Bxpc3): 65/95%
Tigatuzumab: humanized DR5 agonistic antibody	–	–	–	–	–	–	–	–	–	–	–	–	–	–	–	maximally tolerated dose (MTD) [1]: up to 8 mg/kg
CC1(C)CCC(CN2CCN(c3ccc(C(=O)NS(=O)(=O)c4ccc(NCC5CCOCC5)c([N+](=O)[O-])c4)c(Oc4cnc5[nH]ccc5c4)c3)CC2)=C(c2ccc(Cl)cc2)C1 [Bcl2i (ABT199), (4-(4-{[2-(4-chlorophenyl)-4,4-dimethylcyclohex-1-en-1-yl]methyl}piperazin-1-yl)-N-({3-nitro-4-[(tetrahydro-2H-pyran-4-ylmethyl)amino]phenyl}sulfonyl)-2-(1H-pyrrolo[2,3-b]pyridin-5-yloxy)benzamide)]	n.s.	n.s.	n.s.	3	n.s.	20%	60%	n.s.	n.s.	n.s.	n.s.	5%	30%	50%	80%	IC50 combo (SW480; DR5 ab + Fc titrated in combination with 1x IC50 of the named compound, 3 days, n.s. = not significant): n.s.; Fold change IC50 (DR5 ab mono vs combo) (HCT116): 500
O=C1[O][Pt]2([NH][C@@H]3CCCC[C@H]3[NH]2)[O]C1=O [Oxaliplatin, [(1R,2R)-cyclohexane-1,2-diamine](ethanedioato-O,O′)platinum(II)]	–	–	–	13	n.s.	–	–	–	–	–	90%	60%	80%	20%	90%	IC50 (HT29; [11]): 0.2 nM; IC50 (HT29; [12]): 5000 nM; % max. inhibition (mono) (HT29): 30%; Fold change IC50 (DR5 ab mono vs combo) (HCT116): 4; IC50 (HCT116; [11]): 0.04 nM; IC50 (HCT116; [12]): 5000 nM
28H1: FAP binder, VH SEQ ID NO. 15 / VL SEQ ID NO. 16, described in WO 2012/020006	–	–	–	–	–	–	–	–	–	–	–	–	–	–	–	Species Cross-Reactivity (FAP): Human, cyno, murine; Binding Mode (FAP; cell wraps r13-r15: No interference with signaling/protease function, conformational epitope): conformational epitope; Specificity (FAP; cell wraps r17-r18: No binding to hu DPP-IV (CD26, closest FAP homologue)): No binding to hu DPP-IV
DR5 ab + Fc: DR5 antibody (drozitumab) + crosslinking via an anti-Fc antibody, surrogate for FAP crosslinking	–	–	–	–	–	–	–	–	–	–	–	–	–	–	–	IC50 (Aspc1; Aspc1): 5 nM; IC50 (Panc1; Panc1, agent alone, read-out: IC50 monotherapy): 262 nM; IC50 (Bxpc3; Bxpc3): 3 nM; IC50 (HT29; [12]): 2.5 nM; IC50 (SW480; agent alone, 3 days, read-out: IC50 monotherapy): 140 nM; IC50 (HCT116; [12]): 0.15 nM

Now from value to compound, other results behind:

Fold change IC50 (DR5 ab mono vs combo) (Aspc1; Aspc1, n.s. = not significant)	Fold change IC50 (DR5 ab mono vs combo) (Panc1; Panc1, n.s. = not significant)	Fold change IC50 (DR5 ab mono vs combo) (Bxpc3; Bxpc3, n.s. = not significant)	Fold change IC50 (DR5 ab mono vs combo) (HT29)	Fold change IC50 (DR5 ab mono vs combo) (SW480; n.s. = not significant)	Compound	% max. inhibition (mono) (Capan2; Capan2)	% max. inhibition (combo) (Capan2; [2])	% max. inhibition (combo) (Aspc1; [3])	% max. inhibition (combo) (Panc1; [6])	% max. inhibition (combo) (Bxpc3; [8])	% max. inhibition (combo) (HT29)	% max. inhibition (mono) (SW480)	% max. inhibition (combo) (SW480)	% max. inhibition (mono) (HCT116)	% max. inhibition (combo) (HCT116)	other results
31	8733	1	–	–	CC(=O)O[C@H]1C(=O)[C@@]2(C)[C@H]([C@H](OC(=O)c3ccccc3)[C@]3(O)C[C@H](OC(=O)[C@H](O)[C@@H](NC(=O)c4ccccc4)c4ccccc4)C(C)=C1C3(C)C)[C@]1(OC(C)=O)CO[C@@H]1C[C@@H]2O [Paclitaxel, 5β,20-Epoxy-1,2α,4,7β,10β,13α-hexahydroxytax-11-en-9-one 4,10-diacetate 2-benzoate 13-ester with (2R,3S)-N-benzoyl-3-phenylisoserine]	50%	80%	75%	70%	100%	–	–	–	–	–	% max. inhibition (mono) (Aspc1; Aspc1): 30%; IC50 (Panc1; [4]): 0.03 nM; IC50 (Panc1; [5]): 15 nM; % max. inhibition (mono) (Panc1; Panc1): 50%; % max. inhibition (mono) (Bxpc3; [7]): 80%; IC50 (Bxpc3; [9]): 250 nM
50	5	15	–	–	Nc1ccn([C@@H]2O[C@H](CO)[C@@H](O)C2(F)F)c(=O)n1 [Gemcitabine, 4-amino-1-(2-deoxy-2,2-difluoro-β-D-erythro-pentofuranosyl)pyrimidin-2(1H)-on]	35%	60%	55%	75%	80%	–	–	–	–	–	% max. inhibition (mono) (Aspc1; Aspc1): 25%; IC50 (Aspc1; Homo sapiens, 72 h, Aspc1): 2000 nM; IC50 (Panc1; [4]): 52.9 nM; IC50 (Panc1; [5]): 2000 nM; % max. inhibition (mono) (Panc1; Panc1): 50%; % max. inhibition (mono) (Bxpc3; [7]): 45%; IC50 (Bxpc3; [9]): 30 nM
n.s.	n.s.	8	–	–	CC(C)C[C@H](NC(=O)[C@H](Cc1ccccc1)NC(=O)c1cnccn1)B(O)O [Bortezomib, [(1R)-3-methyl-1-[(2S)-3-phenyl-2-(pyrazin-2-ylformamido)propanamido]butyl]boronic acid]	40%	95%	n.s.	n.s.	100%	–	–	–	–	–	IC50 (Capan2; Homo sapiens, Capan-2, 72 h, Capan2, agent alone, 3 days, read-out: IC50 monotherapy): 20 nM; IC50 (Aspc1; Homo sapiens, 72 h, Aspc1): 30 nM; IC50 (Panc1; [5]): 8.5 nM; % max. inhibition (mono) (Bxpc3; [7]): 60%; IC50 (Bxpc3; [9]): 10 nM
17	n.s.	10	–	–	CN(C)CC(=O)Nc1ccc2[nH]c(=O)c3ccccc3c2c1.Cl [PARPi (PJ34)]	–	n.s.	70%	n.s.	n.s.	–	–	–	–	–	% max. inhibition (mono) (Aspc1; Aspc1): 10%
–	–	–	83	n.s.	CCc1c2c(nc3ccc(OC(=O)N4CCC(N5CCCCC5)CC4)cc13)-c1cc3c(c(=O)n1C2)COC(=O)[C@]3(O)CC [Irinotecan, (S)-4,11-diethyl-3,4,12,14-tetrahydro-4-hydroxy-3,14-dioxo1H-pyrano[3′,4′:6,7]-indolizino[1,2-b]quinolin-9-yl-[1,4′bipiperidine]-1′-carboxylate]	–	–	–	–	–	100%	60%	95%	60%	95%	IC50 (HT29; [10]): 9000 nM; % max. inhibition (mono) (HT29): 40%
